Source: patent US20240228458A1, “PYRIMIDINE DERIVATIVE HAVING PROTEIN KINASE INHIBITORY ACTIVITY, AND THERAPEUTIC PHARMACEUTICAL COMPOSITION COMPRISING SAME” (THERAPEX CO., LTD., priority 2021, published 2024)

What was measured:
Format in all cases: cell-based
[1] = system: Ba/F3 cells expressing del19/T790M (EGFR-DT); assay: Growth inhibition (GI50) of Ba/F3 cells expressing del19/T790M (EGFR-DT), Celltiter glo; details: Mus musculus, BaF3, 72 h
Description: (§1) In this experimental example, a determination was made as to whether the compounds prepared in Examples 1-283 have the ability to inhibit the growth of Ba/F3 cells expressing EGFR-wt, del19/T790M/C797S (EGFR-DTC), L858R/T790M/C797S (EGFR-LTC), del19/T790M (EGFR-DT), and L858R/T790M (EGFR-LT) variants.
(§2) The parental Ba/F3 cell line is a population of cells that are not introduced with EGFR variants. Specifically, 100 μl of a cell line expressing each variant was plated in a 96-well plate at a density of 100,000 cells/ml. 10-point, 4-fold serial dilutions of each compound were prepared, starting at 2 mM. After 4 h, 0.5 μl of the compound (0.5% DMSO) was added, followed by incubation at 37° C. and 5% CO2 for 72 h. After incubation, the number of viable cells was measured using a Celltiter glo assay kit (Promega) and the GI50 of the compound was determined. The term “GI50” refers to the molar concentration (μM) of the compound required for 50% growth inhibition of cells.

[2] = system: Ba/F3 cells expressing L858R/T790M/C797S (EGFR-LTC); assay: Growth inhibition (GI50) of Ba/F3 cells expressing L858R/T790M/C797S (EGFR-LTC), Celltiter glo; details: Mus musculus, BaF3, 72 h
In short: (§3)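 Steps: plate engineered Ba/F3 cells (100,000 cells/ml); wait 4 h; add compound as a 4-fold, 10-point dilution series made from 2 mM stock, DMSO 0.5%; incubate 72 h at 37 °C under 5% CO2; measure ATP-based viability with CellTiter-Glo; calculate GI50.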

[3] = system: Ba/F3 cells expressing del19/T790M/C797S (EGFR-DTC); assay: Growth inhibition (GI50) of Ba/F3 cells expressing del19/T790M/C797S (EGFR-DTC), Celltiter glo; details: Mus musculus, BaF3, 72 h
In short: as §3

parental Ba/F3 cell line = assay: Growth inhibition (GI50) of the parental Ba/F3 cell line (not introduced with EGFR variants), Celltiter glo; details: Mus musculus, BaF3, 72 h, parental Ba/F3 cells
In short: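 Viable cell count by CellTiter-Glo after 72 h at 37 °C gave GI50 values (μM, 50% growth inhibition). Cells lacking EGFR variants were seeded at 100,000 cells/ml and dosed 4 h later with 4-fold serial dilutions from a 2 mM stock, 0.5% DMSO.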

[4] = system: Ba/F3 cells expressing EGFR-wt; assay: Growth inhibition (GI50) of Ba/F3 cells expressing EGFR-wt, Celltiter glo; details: Mus musculus, BaF3, 72 h
In short: as §3

[5] = system: Ba/F3 cells expressing L858R/T790M (EGFR-LT); assay: Growth inhibition (GI50) of Ba/F3 cells expressing L858R/T790M (EGFR-LT), Celltiter glo; details: Mus musculus, BaF3, 72 h
Description: as §1, §2

| Compound | GI50 [1] [nM] | GI50 [2] [nM] | GI50 [3] [nM] | GI50 (parental Ba/F3 cell line) [nM] | GI50 [4] [nM] | GI50 [5] [nM] |
| --- | --- | --- | --- | --- | --- | --- |
| COc1cc(N2CCC(N3CCN(C)CC3)CC2)c(C)cc1Nc1ncc(Br)c(Nc2cc(Cl)ccc2NS(C)(=O)=O)n1 [Example 85] | 1 to 25 | 1 to 25 | 1 to 25 | 500 to 2000 | 100 to 500 | 1 to 25 |
| COc1nc(N2CCC(N3CCN(C)CC3)CC2)c(C)cc1Nc1ncc(Br)c(Nc2cc(Cl)ccc2NS(C)(=O)=O)n1 [Example 86, N-(2-((5-bromo-2-((2-methoxy-5-methyl-6-(4-(4-methylpiperazin-1-yl)piperidin-1-yl)pyridin-3-yl)amino)pyrimidin-4-yl)amino)-4-chlorophenyl)methanesulfonamide] | 1 to 25 | 1 to 25 | 25 to 100 | 2000 to 10000 | 500 to 2000 | 25 to 100 |
| CN1CCN(C2CCN(c3ccc(Nc4ncc(Br)c(Nc5cc(Cl)ccc5NS(C)(=O)=O)n4)cc3F)CC2)CC1 [Example 87, N-(2-((5-bromo-2-((3-fluoro-4-(4-(4-methylpiperazin-1-yl)piperidin-1-yl)phenyl)amino)pyrimidin-4-yl)amino)-4-chlorophenyl)methanesulfonamide] | 25 to 100 | 25 to 100 | 25 to 100 | 100 to 500 | 100 to 500 | 25 to 100 |
| COc1cc(N2CCC(N3CCN(C)CC3)CC2)c(Cl)cc1Nc1ncc(Br)c(Nc2cc(Cl)ccc2NS(C)(=O)=O)n1 [Example 88, N-(2-((5-bromo-2-((5-chloro-2-methoxy-4-(4-(4-methylpiperazin-1-yl)piperidin-1-yl)phenyl)amino)pyrimidin-4-yl)amino)-4-chlorophenyl)methanesulfonamide] | 1 to 25 | 1 to 25 | 1 to 25 | 500 to 2000 | 100 to 500 | 1 to 25 |
| COc1cc(N2CCC(N3CCCN(C)CC3)CC2)c(C)cc1Nc1ncc(Br)c(Nc2cc(Cl)ccc2NS(C)(=O)=O)n1 [Example 89] | 25 to 100 | 1 to 25 | 1 to 25 | 500 to 2000 | 100 to 500 | 1 to 25 |
| COc1cc(N2CCC(N3CCCC(N(C)C)C3)CC2)c(C)cc1Nc1ncc(Br)c(Nc2cc(Cl)ccc2NS(C)(=O)=O)n1 (stereo not drawn) [Example 90, N-(2-((5-Bromo-2-((4-(3-(dimethylamino)-[1,4′-bipiperidin]-1′-yl)-2-methoxy-5-methylphenyl)amino)pyrimidin-4-yl)amino)-4-chlorophenyl)methanesulfonamide] | 1 to 25 | 1 to 25 | 1 to 25 | 500 to 2000 | 100 to 500 | 1 to 25 |
| COc1cc(N2CCC(N3CCNCC3)CC2)c(C)cc1Nc1ncc(Br)c(Nc2cc(Cl)ccc2NS(C)(=O)=O)n1 [Example 94, N-(2-((5-bromo-2-((2-methoxy-5-methyl-4-(4-(piperazin-1-yl)piperidin-1-yl)phenyl)amino)pyrimidin-4-yl)amino)-4-chlorophenyl)methanesulfonamide] | 1 to 25 | 1 to 25 | 1 to 25 | 500 to 2000 | 25 to 100 | 1 to 25 |
| COc1cc(N2CCC(N3CCCN(C)CC3)CC2)c(Cl)cc1Nc1ncc(Br)c(Nc2cc(Cl)ccc2NS(C)(=O)=O)n1 [Example 95, N-(2-((5-bromo-2-((5-chloro-2-methoxy-4-(4-(4-methyl-1,4-diazepan-1-yl)piperidin-1-yl)phenyl)amino)pyrimidin-4-yl)amino)-4-chlorophenyl)methanesulfonamide] | 1 to 25 | 1 to 25 | 1 to 25 | 500 to 2000 | 100 to 500 | 1 to 25 |
| Cc1cc(Nc2ncc(Br)c(Nc3cc(Cl)ccc3NS(C)(=O)=O)n2)c(Cl)cc1N1CCC(N2CCCN(C)CC2)CC1 [Example 97, N-(2-((5-bromo-2-((2-chloro-5-methyl-4-(4-(4-methyl-1,4-diazepan-1-yl)piperidin-1-yl)phenyl)amino)pyrimidin-4-yl)amino)-4-chlorophenyl)methanesulfonamide] | 25 to 100 | 1 to 25 | 25 to 100 | 500 to 2000 | 500 to 2000 | 25 to 100 |
| Cc1cc(Nc2ncc(Br)c(Nc3cc(Cl)ccc3NS(C)(=O)=O)n2)c(Cl)cc1N1CCC(N2CCCC(N(C)C)C2)CC1 (stereo not drawn) [Example 98, N-(2-((5-bromo-2-((2-chloro-4-(3-(dimethylamino)-[1,4′-bipiperidin]-1′-yl)-5-methylphenyl)amino)pyrimidin-4-yl)amino)-4-chlorophenyl)methanesulfonamide] | 25 to 100 | 25 to 100 | 25 to 100 | 500 to 2000 | 100 to 500 | 100 to 500 |
| COc1cc(N2CCC(N3CCN(C)CC3)CC2)c(C)cc1Nc1ncc(Cl)c(Nc2ccc3ncccc3c2NS(C)(=O)=O)n1 [Example 115, N-(6-((5-chloro-2-((2-methoxy-5-methyl-4-(4-(4-methylpiperazin-1-yl)piperidin-1-yl)phenyl)amino)pyrimidin-4-yl)amino)quinolin-5-yl)methanesulfonamide] | 100 to 500 | 1 to 25 | 1 to 25 | 2000 to 10000 | 100 to 500 | 25 to 100 |
| COc1cc(N2CCC(N3CCN(C)CC3)CC2)c(C)cc1Nc1ncc(Cl)c(Nc2ccc3nccnc3c2NS(C)(=O)=O)n1 [Example 131, N-(6-((5-chloro-2-((2-methoxy-5-methyl-4-(4-(4-methylpiperazin-1-yl)piperidin-1-yl)phenyl)amino)pyrimidin-4-yl)amino)quinoxalin-5-yl)methanesulfonamide] | 1 to 25 | 1 to 25 | 25 to 100 | 500 to 2000 | 100 to 500 | 25 to 100 |
| COc1nc(N2CCC(N3CCN(C)CC3)CC2)c(C)cc1Nc1ncc(Cl)c(Nc2ccc3nccnc3c2NS(C)(=O)=O)n1 [Example 134, N-(6-((5-chloro-2-((2-methoxy-5-methyl-6-(4-(4-methylpiperazin-1-yl)piperidin-1-yl)pyridin-3-yl)amino)pyrimidin-4-yl)amino)quinoxalin-5-yl)methanesulfonamide] | 100 to 500 | 25 to 100 | 25 to 100 | 100 to 500 | 100 to 500 | 100 to 500 |
| COc1cc(N2CCC(N3CCN(C)CC3)CC2)c(C)cc1Nc1ncc(Cl)c(Nc2cc3c(cc2NS(C)(=O)=O)CCO3)n1 [Example 140, N-(6-((5-chloro-2-((2-methoxy-5-methyl-4-(4-(4-methylpiperazin-1-yl)piperidin-1-yl)phenyl)amino)pyrimidin-4-yl)amino)-2,3-dihydrobenzofuran-5-yl)methanesulfonamide] | 1 to 25 | 1 to 25 | 25 to 100 | 500 to 2000 | 100 to 500 | 25 to 100 |
| COc1cc(N2CCC(N3CCN(C)CC3)CC2)c(C)cc1Nc1ncc(Br)c(Nc2ccccc2N=S(C)(C)=O)n1 [Example 142] | 500 to 2000 | 25 to 100 | 100 to 500 | 500 to 2000 | 500 to 2000 | 500 to 2000 |
| COc1cc(N2CCC(N3CCN(C)CC3)CC2)c(Cl)cc1Nc1ncc(Br)c(Nc2ccccc2N=S(C)(C)=O)n1 [Example 143] | 500 to 2000 | 100 to 500 | 100 to 500 | 100 to 500 | 100 to 500 | 500 to 2000 |
| Cc1cc(Nc2ncc(Br)c(Nc3ccccc3N=S(C)(C)=O)n2)c(Cl)cc1N1CCC(N2CCN(C)CC2)CC1 [Example 144] | 500 to 2000 | 100 to 500 | 500 to 2000 | 500 to 2000 | 500 to 2000 | 100 to 500 |
| COc1cc(N2CCC(N3CCC(C(F)(F)F)CC3)CC2)c(C)cc1Nc1ncc(Br)c(Nc2ccc(F)cc2NS(C)(=O)=O)n1 [Example 148, N-(2-((5-bromo-2-((2-methoxy-5-methyl-4-(4-(trifluoromethyl)-[1,4′-bipiperidin]-1′-yl)phenyl)amino)pyrimidin-4-yl)amino)-5-fluorophenyl)methanesulfonamide] | 100 to 500 | 100 to 500 | 100 to 500 | 500 to 2000 | 500 to 2000 | 500 to 2000 |
